According to patent publication US20210070748A1, “INHIBITORS OF BRUTONS TYROSINE KINASE” (Pharmacyclics LLC, priority 2015, published 2021):

target: T1, BTK-WT (Homo sapiens, UniProt Q06187); assay: Btk in vitro inhibitory activity (one of Method A TR-FRET, Method B electrophoretic mobility shift, Method C radiometric filter binding); assay type: biochemical; conditions: E compounds, Table 17; read-out: IC50 BTK-WT
T1 construct: purified from insect cells as a full-length construct containing an N-terminal 6X-His tag; His6 (N); made in house; host or cells: insect cells (baculovirus Sf21 in Method B)
T1 sequence (Q06187 whole entry): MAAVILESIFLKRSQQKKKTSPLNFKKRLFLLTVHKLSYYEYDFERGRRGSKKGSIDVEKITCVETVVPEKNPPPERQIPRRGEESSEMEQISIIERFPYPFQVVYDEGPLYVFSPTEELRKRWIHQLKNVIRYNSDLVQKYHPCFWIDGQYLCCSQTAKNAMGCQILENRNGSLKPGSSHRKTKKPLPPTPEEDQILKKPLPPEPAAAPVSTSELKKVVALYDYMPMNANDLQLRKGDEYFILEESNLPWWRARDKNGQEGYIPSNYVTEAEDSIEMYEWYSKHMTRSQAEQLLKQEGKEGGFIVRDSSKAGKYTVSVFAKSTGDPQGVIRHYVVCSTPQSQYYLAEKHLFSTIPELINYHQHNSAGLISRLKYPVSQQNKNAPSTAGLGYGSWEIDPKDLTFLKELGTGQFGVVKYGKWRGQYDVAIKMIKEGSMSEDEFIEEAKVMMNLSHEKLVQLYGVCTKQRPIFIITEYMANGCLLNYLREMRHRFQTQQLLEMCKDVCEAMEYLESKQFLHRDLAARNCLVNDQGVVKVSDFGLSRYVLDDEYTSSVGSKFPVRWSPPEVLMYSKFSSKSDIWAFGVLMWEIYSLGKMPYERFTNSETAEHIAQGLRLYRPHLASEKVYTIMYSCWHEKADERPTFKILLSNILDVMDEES

SMILES	IC50 [nM]
C[C@@H]1[C@H](NC(=O)c2ccc(C(=O)N(C)C)cc2)CCCN1c1cnc(C(N)=O)c(Nc2cnn(C)c2)n1 [Example E-138, N1-((2R,3R)-1-(5-carbamoyl-6-((1-methyl-1H-pyrazol-4-yl)amino)pyrazin-2-yl)-2-methylpiperidin-3-yl)-N4,N4-dimethylterephthalamide]	≤ 10
C[C@@H]1[C@H](NC(=O)c2ccc(C3CC3)cc2)CCCN1c1cnc(C(N)=O)c(Nc2ccc(N3CCN(C4CCCC4)C[C@@H]3C)cc2)n1 [Example E-137, 3-((4-((S)-4-cyclopentyl-2-methylpiperazin-1-yl)phenyl)amino)-5-((2R,3R)-3-(4-cyclopropylbenzamido)-2-methyipiperidin-1-yl)pyrazine-2-carboxamide]	≤ 10
C[C@@H]1[C@H](NC(=O)c2cccc(C(C)(C)O)c2)CCCN1c1cnc(C(N)=O)c(Nc2cnn(C)c2)n1 [Example E-145, 5-((2R,3R)-3-(3-(2-hydroxypropan-2-yl)benzamido)-2-methylpiperidin-1-yl)-3-((1-methyl-1H-pyrazol-4-yl)amino)pyrazine-2-carboxamide]	≤ 10
C[C@@H]1[C@H](NC(=O)c2ccc(C(C)(C)N3CCCC3)cc2)CCCN1c1cnc(C(N)=O)c(Nc2cnn(C)c2)n1 [Example E-143, 3-((1-methyl-1H-pyrazol-4-yl)amino)-5-((2R,3R)-2-methyl-3-(4-(2-(pyrrolidin-1-yl)propan-2-yl)benzamido)piperidin-1-yl)pyrazine-2-carboxamide]	≤ 10

same assay, conditions: Table 13, A compounds; read-out: IC50 BTK-WT

SMILES	IC50 [nM]
CN(C)C(=O)N[C@@H]1CCCN(c2cnc(C(N)=O)c(Nc3ccc(C4(C)CCN(C5CCCC5)CC4)cc3)n2)[C@@H]1CO [Example A-101, 3-{[4-(1-cyclopentyl-4-methylpiperidin-4-yl)phenyl]amino}-5-[(2S,3R)-3-[(dimethylcarbamoyl)amino]-2-(hydroxymethyl)piperidin-1-yl]pyrazine-2-carboxamide]	≤ 10
Cc1cc(Nc2nc(N3CCC[C@@H](NC(=O)N4Cc5ccccc5C4=O)C3)cnc2C(N)=O)sn1 [Example A-183, N-[(3R)-1-{5-carbamoyl-6-[(3-methyl-1,2-thiazol-5-yl)amino]pyrazin-2-yl}piperidin-3-yl]-1-oxo-2,3-dihydro-1H-isoindole-2-carboxamide]	≤ 10
CN1CCN(c2ccc(Nc3nc(N4CCC[C@@H](n5ccc6cc(C7CC7)cc(F)c6c5=O)C4)cnc3C(N)=O)cc2)CC1 [Example A-133, 5-[(3R)-3-(6-cyclo-propyl-8-fluoro-1-oxo-1,2-dihydroisoquinolin-2-yl)piperidin-1-yl]-3-{[4-(4-methylpiperazin-1-yl)phenyl]amino}pyrazine-2-carboxamide]	≤ 10
C[C@@H]1[C@H](NC(=O)c2ccc(C3CC3)cc2)CCCN1c1cnc(C(N)=O)c(Nc2cc(CN3CCCCC3)ns2)n1 [Example A-181, 5-[(2R,3R)-3-(4-cyclopropylbenzamido)-2-methylpiperidin-1-yl]-3-{[3-(piperidin-1-ylmethyl)-1,2-thiazol-5-yl]amino}pyrazine-2-carboxamide]	≤ 10
C[C@@H]1[C@H](NC(=O)c2ccc(C3CC3)cc2F)CCCN1c1cnc(C(N)=O)c(Nc2cnn(C)c2)c1 [Example A-127, 5-[(2R,3R)-3-(4-cyclopropyl-2-fluorobenzamido)-2-methylpiperidin-1-yl]-3-[(1-methyl-1H-pyrazol-4-yl)amino]pyridine-2-carboxamide]	10 to 100
C[C@@H]1[C@H](n2ccc3cc(C4CC4)ccc3c2=O)CCCN1c1cnc(C(N)=O)c(Nc2ccc(N3CCN(C)CC3)cc2)n1 [Example A-140, 5-[(2R,3R)-3-(6-cyclopropyl-1-oxo-1,2-dihydro-isoquinolin-2-yl)-2-methylpiperidin-1-yl]-3-{[4-(4-methylpiperazin-1-yl)phenyl]amino}pyrazine-2-carboxamide]	≤ 10
C[C@@H]1[C@H](NC(=O)c2ccc(C3CC3)cc2)CCCN1c1cnc(C(N)=O)c(Nc2cnn(C)c2)n1 [Example A-169, 5-[(2R,3R)-3-(4-cyclopropylbenzamido)-2-methylpiperidin-1-yl]-3-[(1-methyl-1H-pyrazol-4-yl)amino]pyrazine-2-carboxamide]	≤ 10
